Results from patent publication US20120034192A1, “COMPOSITIONS AND METHODS FOR ENHANCING CELL REPROGRAMMING” (priority 2008, published 2012).

How the values were obtained:
G9a HMTase = biological target: T1, G9a HMTase (Homo sapiens, UniProt Q96KQ7); conditions: cited from earlier work
T1 sequence (Q96KQ7 1-1210): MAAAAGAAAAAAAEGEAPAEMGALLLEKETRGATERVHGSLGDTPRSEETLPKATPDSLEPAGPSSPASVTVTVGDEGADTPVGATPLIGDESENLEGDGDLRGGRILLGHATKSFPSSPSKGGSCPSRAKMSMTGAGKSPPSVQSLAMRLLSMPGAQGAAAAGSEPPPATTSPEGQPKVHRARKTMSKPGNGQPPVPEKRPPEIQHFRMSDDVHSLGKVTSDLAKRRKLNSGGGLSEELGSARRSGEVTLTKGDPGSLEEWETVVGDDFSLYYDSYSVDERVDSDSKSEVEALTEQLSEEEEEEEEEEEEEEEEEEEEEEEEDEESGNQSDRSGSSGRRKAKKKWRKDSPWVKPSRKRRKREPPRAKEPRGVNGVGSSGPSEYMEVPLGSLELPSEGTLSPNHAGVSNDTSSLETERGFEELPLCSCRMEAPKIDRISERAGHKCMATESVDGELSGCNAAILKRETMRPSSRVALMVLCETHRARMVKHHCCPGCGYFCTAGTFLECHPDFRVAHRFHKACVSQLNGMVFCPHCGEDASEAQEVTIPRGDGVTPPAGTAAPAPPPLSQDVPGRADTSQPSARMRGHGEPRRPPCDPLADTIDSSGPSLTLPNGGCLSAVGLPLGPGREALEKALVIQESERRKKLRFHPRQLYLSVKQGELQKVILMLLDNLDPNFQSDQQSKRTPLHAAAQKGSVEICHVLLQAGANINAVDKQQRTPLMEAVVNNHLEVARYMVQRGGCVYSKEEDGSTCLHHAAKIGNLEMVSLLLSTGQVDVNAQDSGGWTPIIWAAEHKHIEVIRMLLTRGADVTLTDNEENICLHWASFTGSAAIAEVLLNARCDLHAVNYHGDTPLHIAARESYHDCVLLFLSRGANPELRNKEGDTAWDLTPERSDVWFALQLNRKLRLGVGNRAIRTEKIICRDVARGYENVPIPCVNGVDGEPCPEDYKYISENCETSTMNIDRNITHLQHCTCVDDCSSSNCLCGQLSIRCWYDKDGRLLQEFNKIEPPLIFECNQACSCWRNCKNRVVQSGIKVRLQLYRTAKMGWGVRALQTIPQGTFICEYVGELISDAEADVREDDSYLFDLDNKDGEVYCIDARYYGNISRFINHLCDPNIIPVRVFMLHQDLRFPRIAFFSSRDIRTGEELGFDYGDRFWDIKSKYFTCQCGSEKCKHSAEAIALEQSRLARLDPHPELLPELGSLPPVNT

histone deacetylase = conditions: cited from earlier work
[1] = tested on: 2nd KSO cells (secondary mouse embryonic fibroblasts); assay: iPS cell colony formation from 2nd KSO secondary MEFs after siRNA transfection; type: cell-based; conditions: siRNA 50 nM
Text: Applicants next sought to determine the effect of inhibiting H3K9 methyltransferases on generation of iPS cells. For some experiments, Applicants used “secondary” mouse embryonic fibroblasts (MEFs) that express murine reprogramming factors Klf4, Sox2, and Oct4 under the control of a doxycycline (“dox”)-inducible promoter. These cells, which are referred to as “2nd KSO” cells for short, reprogram to form iPS cells at a low frequency upon treatment with doxycycline, as described in the literature. The cells contained an Oct4-neo transgene, thereby allowing use of G418 to select for cells that were reprogrammed to pluripotency (as evidenced by expression from the Oct4 promoter).
Applicants plated 2nd KSO cells into individual wells of 6-well dishes (100,000 cells per well) in mES cell medium (3 ml) on day 0. On day 1, cells in individual wells were transfected with siRNA (Ambion) designed to inhibit expression of a gene encoding one of the following H3K9 methyltransferases: Ehmt1, Ehmt2, Suv39h1, Suv39h2, and Riz1. Two different siRNAs targeted to each of these genes were used (each well received a single siRNA sequence). […] Accordingly, results obtained using this siRNA must be disregarded. […]
Cells were treated with dox to induce expression of the reprogramming factors. […] Colonies were counted on day 20.

For `COc1cc2nc(N3CCCN(C)CC3)nc(NC3CCN(Cc4ccccc4)CC3)c2cc1OC` [BIX-01294], the “competition with cofactor S-adenosyl-methionine” value (G9a HMTase) is listed as “does not compete with the cofactor S-adenosyl-methionine” and the “selective inhibition of HMTase and generation of H3K9me2” value (G9a HMTase; in vitro) is listed as “selectively impairs the G9a HMTase and the generation of H3K9me2 in vitro”.

For `CC(/C=C/C(=O)NO)=C\[C@@H](C)C(=O)c1ccc(N(C)C)cc1` [Trichostatin A, [R-(E,E)]-7-[4-(Dimethylamino)phenyl]-N-hydroxy-4,6-dimethyl-7-oxo-2,4-heptadienamide], the “concentration inhibiting histone deacetylase” value (histone deacetylase) is listed as “nanomolar concentrations”.

For “s82302: siRNA (Ambion) vs suv39h2; sense GUGUCGAUGUGGACCUGAAtt, antisense UUCAGGUCCACAUCGACACct (sense GUGUCGAUGUGGACCUGAATT; antisense UUCAGGUCCACAUCGACACCT; chemistry not given here)”, the cell growth ([1]; 2nd KSO cells) was “inhibited cell growth”.

In the case of “siRNA #2 against SetDB1: siRNA (Ambion) vs ESET/SetDB1; sense GGACGAUGCAGGAGAUAGAtt, antisense UCUAUCUCCUGCAUCGUCCga (sense GGACGAUGCAGGAGAUAGATT; antisense UCUAUCUCCUGCAUCGUCCGA; chemistry not given here)”, the “number of iPS cell colonies / reprogramming efficiency” value ([1]; dox, G418 from day 14, colonies counted on day 20) is reported as “most striking increase in reprogramming efficiency”.
